# Source: patent US20260109707A1, “HETEROBIFUNCTIONAL COMPOUNDS AND METHODS OF TREATING DISEASE” (Halda Therapeutics OpCo. Inc., priority 2022, published 2026)
# Where two headings read alike, the source gives them in different places.
# What was measured:
# VCaP cells = assay: Cellular growth inhibition assay for VCaP cells (CellTiter-Glo, 72 hours); format: cell-based, human
# Protocol: VCaP cells were purchased from American Type Cell Culture (ATCC Cat #CRL2876) and then seeded on poly-D-lysine coated, black clear-bottom 384-well plates at 5000/well in 25 μL Dulbecco's Modified Eagle Medium (DMEM) supplemented with 10% w/w Fetal bovine serum (FBS) and 1% w/w Pen-Strep. Pen-Strep is a commercially available mixture of penicillin G and streptomycin, which is used in mammalian cell culture media to prevent bacterial contamination. Dulbecco's Modified Eagle Medium (DMEM) supplemented with 10% w/w fetal bovine serum (FBS) and 1% w/w Pen-Strep is herein referred to as Treatment Medium. Following seeding of cells in the plates, the plates were spun at 300×g for 30 seconds, then equilibrated to room temperature for 30 minutes, and then deposited in a humidified tissue culture incubator maintained at 37° C. with 5% C0-2.
# At 24 hours after seeding of the cells, dilutions of test compound were prepared in DMSO and dissolved in Treatment Medium, to achieve a final DMSO concentration of 0.5% w/w, thereby providing the Test Compound Solution. A 25 μL aliquot of the Test Compound Solution was added to cells in the well plates. An equal volume of a solution containing DMSO and Treatment Medium was used as a negative control. Following treatment of cells with Test Compound Solution or said equal volume of a solution containing DMSO and Treatment Medium, the plates were spun at 300×g for 30 seconds, and then left in an incubator for 72 hours.
# At the end of the treatment duration, cell viability was quantified with CellTiter-Glo 2.0 reagent (Promega Cat #G9243). For this purpose, plates were equilibrated to room temperature for 30 minutes, and then 25 μL of CellTiter-Glo 2.0 reagent was added to cells in the plate wells. Plates were then agitated on a shaker for two minutes at 500 rpm and subsequently incubated at room temperature for 10 minutes. Following incubation, the plates were spun at 3000×g for 30 seconds, then sealed with an optical adhesive cover, and luminescence readings were measured with an EnVision Plate Reader.
# Data was normalized using zero luminescence for baseline. A four-parameter non-linear regression curve fit was applied to dose-response data in GraphPad Prism data analysis software to determine the half-maximal growth inhibitory concentration (GI50) for each test compound.
# [1] = test system: T-Rex 293 cell line SC3 cells lacking increased expression of androgen receptor protein; assay: Cellular growth inhibition assay, T-Rex 293 SC3 cells without doxycycline (CellTiter-Glo, 72 hours); format: cell-based; conditions: T-Rex 293 cell line SC3 cells not exposed to doxycycline (lacking increased androgen receptor expression)
# Procedure, shortened: (§1)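 Growth inhibition is measured in an inducible AR-expressing T-Rex 293 clone, SC3, cultured with or without 10 ng/mL doxycycline in hormone-depleted medium. Test compounds are applied for 72 hours. GI50 values derive from CellTiter-Glo 2.0 signal fitted by four-parameter regression.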
# [2] = test system: T-Rex 293 cell line SC3 cells having increased expression of androgen receptor protein due to exposure to doxycycline; assay: Cellular growth inhibition assay, T-Rex 293 SC3 cells with doxycycline (CellTiter-Glo, 72 hours); format: cell-based; conditions: T-Rex 293 SC3 cells with increased androgen receptor expression due to doxycycline (10 ng/mL)
# Procedure, shortened: as §1
"GI50 (VCaP cells; Homo sapiens, VCaP, 72 h) [nM]",GI50 (VCaP cells) [nM],Structure (SMILES),GI50 ([1]; 72 h) [nM],GI50 ([2]; 72 h) [nM],GI50 [1] [nM],GI50 [2] [nM]
< 500,,CC[C@@H]1N=C(c2ccc(N3CCC4(CC3)CC(Cc3ccc(C(=O)N[C@H]5CC[C@H](Oc6ccc(C#N)c(Cl)c6)CC5)nn3)C4)cc2)c2c(sc(C)c2C)-n2c(C)nnc21 [I-612],> 3000,< 500,,
< 500,,CCNC(=O)C[C@@H]1N=C(c2ccc(N3CC(N(C(C)C)C4CN(c5ccc(C(=O)N[C@H]6CC[C@H](Oc7ccc(C#N)c(Cl)c7)CC6)nn5)C4)C3)cc2)c2c(sc(C)c2C)-n2c(C)nnc21 [I-64],500 to 1500,< 500,,
,> 3000,Cc1sc2c(c1C)C(c1ccc(OC3CCC4(CCCN(c5ccc(C(=O)N[C@H]6CC[C@H](Oc7ccc(C#N)c(Cl)c7)CC6)nn5)C4)C3)cc1)=NC1(CC1)c1nnc(C)n1-2 (stereo partly drawn) [I-523],,< 500,> 3000,
< 500,,Cc1sc2c(c1C)C(c1ccc(N3CCC(CN4CCN(c5ccc(C(=O)N[C@H]6CC[C@H](Oc7ccc(C#N)c(Cl)c7)CC6)nn5)CC4)CC3)cc1)=NC1(CC1)c1nnc(C)n1-2 [I-480],500 to 1500,< 500,,
< 500,,Cc1sc2c(c1C)C(c1ccc(N3CC4(CC(C#Cc5ccc(C(=O)N[C@H]6CC[C@H](Oc7ccc(C#N)c(Cl)c7)CC6)nn5)C4)C3)cc1)=N[C@@H](Cc1ncco1)c1nnc(C)n1-2 [I-545],< 500,< 500,,
< 500,,Cc1sc2c(c1C)C(c1ccc(N3CCC4(CCCN(c5ncc(C(=O)N[C@H]6CC[C@H](Oc7ccc(C#N)c(Cl)c7)CC6)cn5)C4)C3)cc1)=NC(Cc1ncco1)c1nnc(C)n1-2 (stereo partly drawn) [I-804],> 3000,< 500,,
< 500,,Cc1sc2c(c1C)C(c1ccc(Cl)cc1)=N[C@@H](CC(=O)NCCCCCOC1CCN(c3ccc(C(=O)N[C@H]4CC[C@H](Oc5ccc(C#N)c(Cl)c5)CC4)nn3)CC1)c1nnc(C)n1-2 [I-5],< 500,< 500,,
,< 500,Cc1sc2c(c1C)C(c1ccc(C3CCC4(CC3)CCN(c3ccc(C(=O)N[C@H]5CC[C@H](Oc6ccc(C#N)c(Cl)c6)CC5)nn3)CC4)nc1)=N[C@@H](C)c1nnc(C)n1-2 [I-744],,,500 to 1500,< 500
> 3000,,Cc1sc2c(c1C)C(c1ccccc1CC1CC3(CCCN(c4ccc(C(=O)N[C@H]5CC[C@H](Oc6ccc(C#N)c(Cl)c6)CC5)nn4)C3)C1)=N[C@@H](C)c1nnc(C)n1-2 (stereo partly drawn) [I-754],> 3000,> 3000,,
,> 3000,COCC[C@@H]1N=C(c2ccc(C3CCC4(CCN(c5ccc(C(=O)N[C@H]6CC[C@H](Oc7ccc(C#N)c(Cl)c7)CC6)nn5)CC4)C3)cc2)c2c(sc(C)c2C)-n2c(C)nnc21 (stereo partly drawn) [I-616],< 500,< 500,,
< 500,,Cc1sc2c(c1C)C(c1ccc(OC3CC4(C3)CC3(CCN(c5ccc(C(=O)N[C@H]6CC[C@H](Oc7ccc(C#N)c(Cl)c7)CC6)nn5)CC3)C4)cc1)=NC1(CC1)c1nnc(C)n1-2 [I-452],> 3000,< 500,,
,< 500,Cc1sc2c(c1C)C(c1ccc(C#CC3CC4(CCCN(c5ccc(C(=O)N[C@H]6CC[C@H](Oc7ccc(C#N)c(Cl)c7)CC6)nn5)C4)C3)nc1)=N[C@@H](C)c1nnc(C)n1-2 (stereo partly drawn) [I-460],,,500 to 1500,< 500
< 500,,Cc1sc2c(c1C)C(c1cccc(N3CCC4(CC3)CCN(c3ccc(C(=O)N[C@H]5CC[C@H](Oc6ccc(C#N)c(Cl)c6)CC5)nn3)C4)c1)=N[C@@H](C)c1nnc(C)n1-2 [I-685],500 to 1500,< 500,,
< 500,,Cc1sc2c(c1C)C(c1ccc(C3CCC4(CC3)CCN(c3ccc(C(=O)N[C@H]5CC[C@H](Oc6ccc(C#N)c(Cl)c6)CC5)nn3)CC4)cc1)=NC1(CC1)c1nnc(C)n1-2 [I-532],> 3000,< 500,,
,> 3000,Cc1sc2c(c1C)C(c1ccc(C3CCC4(CCCN(c5ccc(C(=O)N[C@H]6CC[C@H](Oc7ccc(C#N)c(Cl)c7)CC6)nn5)C4)CC3)cc1)=NC(C(F)(F)F)c1nnc(C)n1-2 (stereo partly drawn) [I-695],,,> 3000,> 3000
< 500,,Cc1sc2c(c1C)C(c1ccc(N3CC(CC4CCCN(c5ccc(C(=O)N[C@H]6CC[C@H](Oc7ccc(C#N)c(Cl)c7)CC6)nn5)C4)C3)cc1)=N[C@@H](C)c1nnc(C)n1-2 (stereo partly drawn) [I-576],< 500,< 500,,
,< 500,Cc1sc2c(c1C)C(c1ccc(CC3CC(CC4CCN(c5ccc(C(=O)N[C@H]6CC[C@H](Oc7ccc(C#N)c(Cl)c7)CC6)nn5)CC4)C3)cc1)=N[C@@H](C)c1nnc(C)n1-2 (stereo partly drawn) [I-629],,,> 3000,< 500
,< 500,Cc1sc2c(c1C)C(c1cccc(CC3CC4(CCCN(c5ccc(C(=O)N[C@H]6CC[C@H](Oc7ccc(C#N)c(Cl)c7)CC6)nn5)C4)C3)c1)=N[C@@H](C)c1nnc(C)n1-2 (stereo partly drawn) [I-712],,,> 3000,< 500
,< 500,Cc1sc2c(c1C)C(c1ccc(CCCC3CCCN(c4ccc(C(=O)N[C@H]5CC[C@H](Oc6ccc(C#N)c(Cl)c6)CC5)nn4)CC3)nc1)=N[C@@H](C)c1nnc(C)n1-2 (stereo partly drawn) [I-672],,,< 500,< 500
,< 500,Cc1sc2c(c1C)C(c1ccc(CC3CCC4(CCCN(c5ccc(C(=O)N[C@H]6CC[C@H](Oc7ccc(C#N)c(Cl)c7)CC6)nn5)C4)C3)cn1)=N[C@@H](C)c1nnc(C)n1-2 (stereo partly drawn) [I-635],,,< 500,< 500
< 500,,CCNC(=O)C[C@@H]1N=C(c2ccc(N(C)C3CC(OC4CCN(c5ncc(C(=O)N[C@H]6CC[C@H](Oc7ccc(C#N)c(Cl)c7)CC6)cn5)CC4)C3)cc2)c2c(sc(C)c2C)-n2c(C)nnc21 (stereo partly drawn) [I-69],500 to 1500,< 500,,
,< 500,Cc1sc2c(c1C)C(c1ccc(CC3CC4(CCCN(c5ccc(C(=O)N[C@H]6CC[C@H](Oc7ccc(C#N)c(Cl)c7)CC6)nn5)C4)C3)cn1)=NC(Cc1ncco1)c1nnc(C)n1-2 (stereo partly drawn) [I-770],,,< 500,< 500
,> 3000,Cc1sc2c(c1C)C(c1ccc(OC3CCC4(CCCN(c5ccc(C(=O)N[C@H]6CC[C@H](Oc7ccc(C#N)c(Cl)c7)CC6)nn5)C4)C3)cc1)=N[C@@H](C)c1nnc(C)n1-2 (stereo partly drawn) [I-536],> 3000,< 500,,
,500 to 1500,Cc1sc2c(c1C)C(c1ccc(C#CC3CC4(CCCN(c5ccc(C(=O)N[C@H]6CC[C@H](Oc7ccc(C#N)c(Cl)c7)CC6)nn5)C4)C3)cn1)=NC(C)c1nnc(C)n1-2 (stereo partly drawn) [I-456],,,500 to 1500,< 500
< 500,,"Cc1sc2c(c1C)C(c1ccc(N3C[C@@H]4CN(c5ccc(C(=O)N[C@H]6CC[C@@H](Oc7ccc(C#N)c(Cl)c7)CC6)nn5)C[C@@H]4C3)cc1)=N[C@@H](Cc1ncco1)c1nnc(C)n1-2 [I-825, 6-[(3aR,6aS)-2-[4-[(9S)-4,5,13-trimethyl-9-(oxazol-2-ylmethyl)-3-thia-1,8,11,12-tetrazatricyclo[8.3.0.02,6]trideca-2(6),4,7,10,12-pentaen-7-yl]phenyl]-1,3,3a,4,6,6a-hexahydropyrrolo[3,4-c]pyrrol-5-yl]-N-[4-(3-chloro-4-cyano-phenoxy)cyclohexyl]pyridazine-3-carboxamide]",< 500,< 500,,
< 500,,Cc1sc2c(c1C)C(c1ccc(OC3CC4(CCN(c5ccc(C(=O)N[C@H]6CC[C@H](Oc7ccc(C#N)c(Cl)c7)CC6)nn5)CC4)C3)cn1)=N[C@@H](C)c1nnc(C)n1-2 [I-461],,,> 3000,< 500
,< 500,Cc1sc2c(c1C)C(c1ccc(CC3CCC4(C3)CN(c3ccc(C(=O)N[C@H]5CC[C@H](Oc6ccc(C#N)c(Cl)c6)CC5)nn3)CCO4)cc1)=N[C@@H](C)c1nnc(C)n1-2 (stereo partly drawn) [I-581],,,< 500,< 500
,< 500,Cc1sc2c(c1C)C(c1ccc(COC3CCC4(C3)CN(c3ccc(C(=O)N[C@H]5CC[C@H](Oc6ccc(C#N)c(Cl)c6)CC5)nn3)CCO4)cc1)=N[C@@H](C)c1nnc(C)n1-2 (stereo partly drawn) [I-558],,,< 500,< 500
< 500,,Cc1sc2c(c1C)C(c1ccc(OC3(C)CC4(CN(c5ccc(C(=O)N[C@H]6CC[C@H](Oc7ccc(C#N)c(Cl)c7)CC6)nn5)C4)C3)cc1)=N[C@@H](Cc1ncco1)c1nnc(C)n1-2 [I-468],< 500,< 500,,
